# Data published in patent US20100189695A1, “IRAK-1 AS REGULATOR OF DISEASES AND DISORDERS” (priority 2008, published 2010).
# No end group written: not given here.
# Key:
# RARα = RARα levels in BMDMs after LPS, Western blot and real time RT-PCR; format: cell-based, mouse; settings: for nuclear RARα protein level: 100 ng/ml LPS
# Protocol: To determine if IRAK-1 is involved in the nuclear translocation of RARα, the levels of RARα were determined in wild type and IRAK-1 deficient macrophages in the presence and absence of LPS (FIG. 9). […] When experiments are performed in a IRAK-1 deficient background, RARα is not suppressed (lanes 5-8). As expected, when a wild type background is used, IRAK-1 suppression can be seen (lanes 1 and 2).
# WT and IRAK-1^−/−. BMDMs were treated with 100 ng/ml LPS for 2 h followed by nuclear protein extraction. The samples were analyzed by immunoblotting using the indicated antibodies. LaminB was used as the loading control. Panel B: the BMDMs derived from WT and IRAK-1^−/− mice were treated with LPS for 2 h followed by RNA extraction. The resulting cDNAs were used to detect RARα transcript levels by real time RT-PCR and standardized against GAPDH levels. Panel C: WT BMDMs were treated with 100 ng/ml LPS for 2 h followed by whole cell protein extraction. The samples were resolved by SDS-PAGE followed by immunoblotting with anti-RARα antibodies. Panel D: BMDM cells derived from WT mice were either untreated or treated with Leptomycin B (LepB) alone or in the presence of LPS. After 2 h incubation, nuclear lysates were prepared and subjected to SDS-PAGE followed by Western blot analysis with RARα specific antibodies. The blots were also probed with LaminB-specific antibodies as a loading control. ns=non-specific.
# ABCA1 = ABCA1 induction by ATRA in BMDMs, real time RT-PCR; format: cell-based, mouse; settings: IRAK1−/− vs WT BMDMs, 50 nM ATRA, 6 h
# Protocol: WT and IRAK1^−/− BMDM cells were either untreated or treated with ATRA (50 nM) followed by Western blot analysis of cell extracts using ABCA1 specific antibodies. Antibodies against β-actin were used as the internal loading control. Panel B: the band intensities were quantitated using the Fujifilm Multi Gauge software and the fold induction is depicted after normalization against β-actin levels. Panel C: IRAK-1 expression was knocked-down using IRAK-1 specific siRNA (IRAK1). Wild type macrophages treated with either control siRNA or IRAK-1 specific siRNA were stimulated with 50 nM ATRA for 6 hrs. The levels of ABCA1 protein were determined by Western blot using anti-ABCA1 antibody. The levels of beta-actin were probed and served as equal loading controls. The levels of IRAK-1 were probed to make efficient knock-down with the IRAK-1 specific siRNA treatment. […] The cells were […] either untreated or treated with 50 nM ATRA for 6 h and the expression of ABCA1 and ABCG1 transcripts were measured by real time RT-PCR assays and standardized against GAPDH levels.
# PGC1α = PGC1α protein after LPS, Western blot; format: cell-based; settings: LPS vs Control
# Protocol: The ability of IRAK-1 to regulate the transcription factor PGC1α was determined in this set of experiments. PGC1α was detected by Western blot analysis in either wild type or IRAK-1 deficient cells in the presence or absence of LPS (FIG. 15).
# LXRα = LXRα protein after LPS, Western blot; format: cell-based
# Source text: The transcriptional factor LXRα was also thought to be a potential target of IRAK-1 suppression. FIG. 14 illustrates Western blot analysis of the LXRα protein in the presence and absence of IRAK-1. Suppression of LXRα can be seen in the wild type cells (lanes 1 and 2).
# C/EBPδ = test: LPS-induced C/EBPδ expression, Western blot in macrophages; format: cell-based; settings: LPS two hours
# Protocol: To determine if IRAK-1 is involved in LPS-induced C/EBPδ expression, either wild type or IRAK-1 deficient macrophages were treated with LPS for two hours. […] Either β-actin or lamin-B proteins were used as controls.
# PPARα = PPARα protein after LPS, Western blot; format: cell-based; settings: IRAK-1 deficient cells, LPS vs Control
# Source text: It was of interest to determine if the transcription factor PPARα is also regulated by IRAK-1.
# NOX-1 = NOX-1 expression after LPS in BMDM cells; format: cell-based, mouse
# Protocol: To determine if IRAK-1 was involved in the regulation of inflammatory mediator NOX-1, the levels of NOX-1 were determined in wild type and IRAK-1 deficient macrophages in the presence and absence of LPS (FIG. 16).
# Panel A: Effect of LPS on NOX-1 expression in WT and IRAK1^−/− BMDM cells. The cells were stimulated with LPS (100 ng/ml) for 2 h. After stimulation, total RNA was prepared using Trizol reagent followed by reverse transcription and the mRNA levels of NOX-1 were analyzed using real-time RT-PCR. Each data point represents the mean+/−standard deviation of at least three independent experiments. *P<0.05, compared with control. Panel B: The protein levels of NOX-1 were analyzed after LPS stimulation in WT and IRAK1^−/− BMDM cells by Western blot using an anti-NOX-1 antibody. The same blots were probed with β-actin as the loading control. Panel C: Chromatin immunoprecipitation analyses were performed to determine LPS-inducible recruitment of C/EBPδ to the promoter region of NOX-1. In contrast, LPS cannot induce C/EBPδ binding to the promoter region of NOX-1 in IRAK-1 deficient macrophages.
# MCP-1 = MCP-1 message and protein after LPS in macrophages, real-time PCR and ELISA; format: cell-based; settings: wild-type cells, LPS stimulation
# Protocol: To investigate the possible role of IRAK-1 in control of MCP-1 expression, experiments were performed to assess the level of MCP-1 produced via LPS stimulation. It was postulated that IRAK-1 regulates the expression of MCP-1 through interaction of IRAK-1 with C/EBPδ. To assess this possible interaction, MCP-1 mRNA levels were determined in both wild-type cells and IRAK^−/− cells in the presence and absence of LPS. The results are depicted graphically in FIG. 17.
# As shown in the figure, the levels of MCP-1 message (left panel) and protein (right panel) in wild type and IRAK-1 deficient macrophages following LPS stimulation was measured by real-time PCR analyses (left panel) and ELISA (right panel). […] The data fully support a role for IRAK-1 in control of expression of MCP-1 transcription through control of C/EBPδ.
# BMDM cells = test: Intracellular ROS by DCFDA staining after LPS stimulation; format: cell-based, mouse; settings: wild type macrophages, LPS 100 ng/ml, 15 minutes or 16 hours
# Protocol: (§1) To determine if IRAK-1 is required for LPS-induced activation of Rac1, either wild type or IRAK-1 deficient macrophages were treated with LPS (100 ng/ml).
# Intracellular ROS levels were measured by DCFDA staining using fluorescence microscope after LPS (100 ng/ml) stimulation in WT and IRAK1^−/− BMDM cells for 15 min.
# Rac1 = Rac1 activity by PBD pull down assay after LPS stimulation; format: cell-based, mouse; settings: LPS 100 ng/ml, 5 min
# Protocol: as §1
# Rac1 activity was determined using the PBD pull down assay following LPS stimulation (100 ng/ml) for 5 min in WT and IRAK1^−/− BMDM cells followed by immunoblotting with an anti-Rac1 antibody. […] The bar graphs are densitometric analyses of the active Rac1 specific bands from three independent experiments.
# Tau = Tau phosphorylation (PHF-Tau) after BLP (Pam3CSK4) in bone marrow derived macrophages, Western blot; format: cell-based, mouse
# Protocol: Because Tau phosphorylation is increased in aged human brains and contributes to the pathogenesis of various neurological diseases, such as Alzheimer's and Parkinson's diseases, studies were performed to ask whether the increased levels of full-length IRAK-1 can contribute to Tau phosphorylation. In order to answer this question, a transgenic mouse model known in the art was used. According to this study, either wild type or IRAK-1 deficient bone marrow derived macrophages were treated with BLP (Pam3CSK4) for various times, as indicated in FIGS. 4 and 5. The levels of phosphorylated Tau (PHF-Tau) were detected through Western Blot using anti-phosphorylated Tau antibody.
molecule,measurement,setting,value
"CCC(=C/[C@H](C)C/C=C/C(C)=C/[C@@H](C)C(=O)[C@@H](C)[C@H](O)[C@@H](C)C/C(C)=C/C(=O)O)/C=C/[C@@H]1OC(=O)C=C[C@@H]1C [LepB, Leptomycin B]",LPS-induced suppression of nuclear RARα in the presence of LepB,"RARα; wild type BMDM, LepB with LPS, 2 h",RARα suppression by IRAK-1 is not seen
"CC1=C(/C=C/C(C)=C/C=C/C(C)=C/C(=O)O)C(C)(C)CCC1 [ATRA, all trans retinoic acid]",ABCA1 mRNA induction,ABCA1,higher induction of ABCA1 mRNA
lipopolysaccharide [LPS],PGC1α protein,PGC1α; IRAK-1 deficient cells,did not show the LPS-induced suppression
same,PGC1α protein,PGC1α; wild type cells,much less of the PGC1α protein
same,amount of LXRα in the presence or absence of LPS,LXRα; IRAK-1 deficient cells,approximately the same
same,amount of LXRα without LPS induction relative to LPS-induced cells,LXRα; wild type cells,four times
same,C/EBPδ expression,C/EBPδ; IRAK-1 deficient macrophages,no induction
same,C/EBPδ expression,C/EBPδ; wild type macrophages,induction
same,PPARα protein,PPARα,PPARα was seen in both the Control and LPS samples
same,NOX-1 protein,NOX-1; IRAK-1 deficient cells,Induction was seen to a lesser extent
same,NOX-1 protein,NOX-1; wild type macrophage cells,LPS-induction of NOX-1
same,MCP-1 transcription and protein expression,MCP-1,significant increase in induction of MCP-1 transcription and protein expression
same,reactive oxygen species levels,BMDM cells,induced significantly higher levels of reactive oxygen species
same,activation of Rac1,Rac1; IRAK-1 deficient macrophages,No induction was seen
same,relative Rac1 activity,Rac1; wild type macrophages,significantly higher
same,nuclear RARα protein level,"RARα; IRAK-1 deficient BMDMs, 2 h",no significant suppression
same,nuclear RARα protein level,"RARα; wild type BMDMs, 2 h",suppression of RARα protein
same,RARα relative transcript levels,"RARα; wild type and IRAK-1 deficient BMDMs, LPS 2 h, standardized against GAPDH",approximately equal
"Triacylated Cys-Ser-Lys-Lys-Lys-Lys (CSKKKK; not fully specified (residue 1, N-terminus); printed as Triacylated Cys-Ser-Lys-Lys-Lys-Lys) [Pam3CSK4]",Tau phosphorylation,Tau; IRAK-1 deficient bone marrow derived macrophages,Tau phosphorylation is ablated
same,Tau phosphorylation,Tau; wild type bone marrow derived macrophages,led to increased Tau phosphorylation
